The subject of one data set is OC-33CO. Nature of the data set: Reporter OC-33CO lacking lex-operators, control effector plasmid without receptor cDNA. The data set is classed as cell-based. As to conditions: SD in parentheses. An excerpt: (§1) Such fusion constructs are expected to be useful in regulating the expression of exogenous genes introduced into transgenic mammals or mammalian cells. I next determined if the DHR23α ligand-binding domain could be used to regulate the activity of a DNA-binding domain not normally expressed in mammalian cells. I constructed the chimeric gene GLxEc by replacing the sequences coding for the GR DNA-binding domain in the GGEc fusion with those encoding the DNA-binding domain of the Escherichia coli LexA repressor (J. W. Little and S. A. Hill, Proc. Natl. Acad. Sci. U.S.A. 82, 2301 [1985]) (Fig. 4). A reporter gene, X4C-33CO was constructed that contains 4 copies of a 26-bp lex operator (R. Brent and M. Ptashne, Nature 312, 612 [1984]) at position -33 of the CMV promoter. GLxEc had no effect on the expression of a OC-33CO, a reporter gene lacking the lex operator (Fig. 6B).
(§2) Illustrated in Table 2 is the transcriptional activation by receptor-LexA fusion proteins. Effector plasmids encoding the indicated receptor proteins were transfected with a reporter gene either containing (X4C-33CO) or lacking (OC-33CO) lex-operators. […] The cells were incubated either with (+) or without (-) muristerone A. The fold induction was determined as described previously; the standard deviations are shown in parenthesis.

The subject of a further data set is insect. The following applies: in vivo; cited from earlier work.
The target of a further data set is EcEcEc (Drosophila melanogaster, UniProt P34021). Put plainly: Lex-operator reporter X4C-33CO with EcEcEc (DHR23α). Also on record: To isolate the full-length DHR23α clones; expressed in transfected cells. It is filed as cell-based. As to conditions: receptor EcEcEc, SD in parentheses.
Text: as §1, §2

In patent EP0598011B1, “ECDYSTEROID DEPENDENT REGULATION OF GENES IN MAMMALIAN CELLS” (GENENTECH, INC., priority 1991, dated 1993) one finds fold induction and insect moulting activity data, which are given here for 1 compound.

Chain of EcEcEc (P19793 whole entry): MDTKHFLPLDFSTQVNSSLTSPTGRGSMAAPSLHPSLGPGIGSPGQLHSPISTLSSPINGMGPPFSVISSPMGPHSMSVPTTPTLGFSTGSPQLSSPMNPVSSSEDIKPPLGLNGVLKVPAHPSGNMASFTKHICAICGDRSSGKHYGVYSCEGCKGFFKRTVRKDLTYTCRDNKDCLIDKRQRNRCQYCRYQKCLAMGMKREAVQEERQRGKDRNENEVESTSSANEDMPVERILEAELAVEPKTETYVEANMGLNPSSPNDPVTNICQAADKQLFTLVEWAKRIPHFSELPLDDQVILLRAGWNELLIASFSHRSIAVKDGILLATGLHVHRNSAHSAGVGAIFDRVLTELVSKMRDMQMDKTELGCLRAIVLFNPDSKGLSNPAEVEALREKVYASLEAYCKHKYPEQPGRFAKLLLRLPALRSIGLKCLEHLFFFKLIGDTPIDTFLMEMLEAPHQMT
Chain of EcEcEc (P34021 whole entry): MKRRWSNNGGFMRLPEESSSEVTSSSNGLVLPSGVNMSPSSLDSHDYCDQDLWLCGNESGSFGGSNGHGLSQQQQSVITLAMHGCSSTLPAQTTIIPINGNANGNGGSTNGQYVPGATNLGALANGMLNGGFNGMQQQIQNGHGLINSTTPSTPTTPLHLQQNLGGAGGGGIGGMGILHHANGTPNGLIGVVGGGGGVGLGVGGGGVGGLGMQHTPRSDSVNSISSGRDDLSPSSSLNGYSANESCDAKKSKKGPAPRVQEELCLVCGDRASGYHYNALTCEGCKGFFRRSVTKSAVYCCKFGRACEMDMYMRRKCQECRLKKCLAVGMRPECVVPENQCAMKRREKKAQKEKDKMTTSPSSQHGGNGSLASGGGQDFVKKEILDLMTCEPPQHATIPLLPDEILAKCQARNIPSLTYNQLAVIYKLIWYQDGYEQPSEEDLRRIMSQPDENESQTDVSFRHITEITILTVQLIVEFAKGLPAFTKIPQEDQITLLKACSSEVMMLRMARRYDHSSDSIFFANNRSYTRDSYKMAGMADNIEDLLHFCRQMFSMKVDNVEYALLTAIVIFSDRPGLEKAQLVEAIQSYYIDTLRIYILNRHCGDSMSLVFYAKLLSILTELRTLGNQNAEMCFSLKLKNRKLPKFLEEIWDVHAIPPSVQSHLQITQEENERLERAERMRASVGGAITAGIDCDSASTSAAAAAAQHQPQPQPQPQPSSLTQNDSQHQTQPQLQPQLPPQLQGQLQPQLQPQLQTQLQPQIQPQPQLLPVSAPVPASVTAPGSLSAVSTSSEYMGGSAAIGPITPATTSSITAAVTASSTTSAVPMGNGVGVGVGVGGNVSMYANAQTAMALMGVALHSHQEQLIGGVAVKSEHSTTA

For `CC(C)CCC(O)[C@](C)(O)[C@H]1CC[C@@]2(O)C3=CC(=O)C4(O)CC(O)C(O)C[C@]4(C)[C@H]3C(O)C[C@]12C` (stereo partly shown) [muristerone A, 2,3,5,11,14,20,22-Heptahydroxy-7-cholesten-6-one], the fold induction (usually the signal under treatment as a multiple of the control signal) is 1.1 (0.4) fold in the data set with OC-33CO, 1.4 (0.1) fold on EcEcEc and “not induced” on EcEcEc (listed as muristerone). Also, the insect moulting activity entry with insect is reported as “high”.
